For one data set, the system named is CAM de poulet. The following applies: inhibition of angiogenesis in chicken CAM; cited from earlier work.
The subject of data set [1] is mégacaryocytopoièse humaine. Conditions: cited from earlier work.
In the next data set the test system is cellules HEL. The following applies: prior-art comparators; cited from earlier work.
Data set [2] has as its system mégacaryocytopoïèse in vivo. Put plainly: Megakaryocytopoiesis in vivo in normal mice (marrow and blood counts). The following applies: souris Balb/c, 40 µg/kg s.c. twice daily for 4 days, sampled day 2 after last injection; mean ± SEM. The method, then: L'effet du dodécapeptide de l'exemple 1 sur la mégacaryocytopoïèse in vivo a été testé sur des souris normales selon une méthode décrite par HAN et al., dans l'article C.R. Acad. Sci. Paris, (1991), 313, Série III, 553-558 précité. Chaque groupe contient 5-10 souris Balb/c. Le peptide est injecté par voie sous-cutanée deux fois par jour pendant 4 jours aux concentrations de 1 µg et 5 µg par souris pour chaque administration. Les échantillons de moëlle et/ou de sang ont été prélevés au jour J2 qui suit la dernière injection.
Les souris ont été tuées par dislocation cervicale. Les cellules médullaires ont été obtenues à partir des fémurs et le sang a été obtenu par ponction cardiaque. Les cellules médullaires à la concentration de 2 x 10^5 cellules mononucléées par ml ont été remises en culture en cinq exemplaires en présence de sérum de porc aplasique pendant une semaine pour tester le nombre de progéniteurs mégacaryocytaires (CFU-MK). Le nombre des mégacaryocytes a été évalué sur des cellules médullaires non cultivées mais ensemencées dans des boîtes de culture après obtention à partir des fémurs. Le nombre de plaquettes, de globules blancs et le taux d'hémoglobine ont été mesurés en utilisant un compteur hématopoiétique automatique. […]

Where no end group is shown, it is not given here.

On to “C-13: peptide constitué par les 13 derniers aminoacides (i.e. 58-70) de l'extrémité C-terminale du pF4 (PLYKKIIKKLLES; Platelet factor 4; UniProt P02776 89-101, looked up, fragment)”, for which the anti-angiogénèse entry in the data set with CAM de poulet is on record as “propriétés anti-angiogénèse”. In addition, the “effet sur la mégacaryocytopoïèse” value in data set [1] (in vitro) is reported as “aucun effet”.

With “C-41: peptide constitué par les 41 derniers aminoacides (i.e. 30-70) de l'extrémité C-terminale du pF4 (IKAGPHCPTAQLIATLKNGRKICLDLQAPLYKKIIKKLLES; Platelet factor 4; UniProt P02776 61-101, looked up, fragment)”, in the data set with CAM de poulet, the anti-angiogénèse result is “propriétés anti-angiogénèse”.

On to “C-24: peptide constitué par les 24 derniers aminoacides (i.e. 47-70) de l'extrémité C-terminale du pF4 (NGRKICLDLQAPLYKKIIKKLLES; Platelet factor 4; UniProt P02776 78-101, looked up, fragment)”, for which, in the data set on cellules HEL, the “maturation des cellules HEL” value is on record as “limitent la maturation” and the “prolifération des cellules HEL” value is “n'agissent pas sur leur prolifération”. The “dose inhibiting mégacaryocytopoièse humaine in vitro” value in data set [1] (relatively high dose) was approximately 25 µg/mL.

Turning to NGRKICLDLEAP [exemple 1], in data set [2], the “Sang H (hémoglobine)” value is reported as 15,2±0,8 g/100 ml and the “Sang L (leucocytes)” value is on record as 2,80±0,4 10^3/µl.

(Values after patent publication EP0642531B1, “MONOMER AND DIMER PEPTIDES, UTILIZATION AS CYTOPROTECTOR AGENTS AND PREPARATION METHOD” (INSTITUT DES VAISSEAUX ET DU SANG, priority 1992, dated 1997).)
